Test results as given in patent US7048907B2, “Synthesis, compositions and methods for the measurement of the concentration of stable-isotope labeled compounds in life forms and life form excretory products” (BioPhysics Assay Laboratory, Inc., priority 2001, dated 2006).

Experiments:
[1] = Stability of chelates to autoclaving (CM-Sephadex assay); assay type: physicochemical; conditions: for % of total / dpm: autoclaved 30 minutes at 121° C.
Procedure: A sample comprising 5 ml of Sm-DTPA, La-DTPA, and Eu-DTPA prepared in Examples 9, 10, and 11 were placed in 10 ml glass bottles, each capped with a grey butyl rubber cap, and the caps were crimped. Samples were autoclaved for 30 minutes at 121° C.
Five ml of each of Sm-DOTA, La-DOTA, and Eu-DOTA prepared in Examples 13, 14, and 15 were placed in 10 ml glass bottles capped with a grey butyl rubber cap and crimped. Samples were autoclaved for 30 minutes at 121° C. Samples were allowed to cool to room temperature and were assayed as described in Examples 25.

[2] = Assay of chelate on carboxymethyl (CM) Sephadex column (chelate formation, charge); assay type: physicochemical
Procedure: Preparation of carboxymethyl sephadex column. To two 10 ml plastic pipets cut off at the 3 ml mark and plugged with glass wool at the bottom add enough slurry to form a 2 ml volume of the CM sephadex. Wash the packed resin with 6 ml of 1 M Tris buffer pH 7.5, and 6 ml of 0.01M Tris buffer pH 7.5. […] Collect the eluants of fractions as follows. Fraction 1.3 ml of 0.01 M Tris buffer pH 7.5 and allow to drain into column. Fraction 2.1 ml of sample (gadolinium-DTPA or gadolinium chloride) and allow to drain into column. Apply 3 ml of 0.01 M Tris buffer pH 7.5 and allow to drain into column. Fraction 3.3 ml of 0.01M Tris buffer pH 7.5 and allow to drain into column. Dry all fractions at 70° C. for 76 hours, dissolve in 1 ml of 1 mM HCl and assay by atomic absorption.
(§1) Preparation of carboxymethyl Sephadex column. To two 10 ml plastic pipets which had been cut off at the 3 ml mark and plugged with glass wool at the bottom, enough slurry was added to form a 2 ml volume of the CM Sephadex. The packed resin was wash with 6 ml of 1 M Tris buffer pH 7.5, and 6 ml of 0.01M Tris buffer pH 7.5. […] Fractions were applied as follows. Fraction 1. Three ml of 0.01 M Tris buffer pH 7.5 and allow to drain into column. Fraction 2. One ml of sample (samarium-DTPA or samarium chloride) and allow to drain into column. Apply 3 ml of 0.01 M Tris buffer pH 7.5 and allow to drain into column. Fraction 3. Three ml of 0.01M Tris buffer pH 7.5 and allow to drain into column. Collect the eluant of fractions 1 through 3. Fraction 4. Column and contents.
as §1, with “were” for “had been”, “washed” for “wash”, “(lanthanum-DTPA” for “(samarium-DTPA”, “lanthanum” for “samarium”
as §1, with “were” for “had been”, “washed” for “wash”, “(Europium-DTPA” for “(samarium-DTPA”, “Europium” for “samarium”
Preparation of carboxymethyl sephadex column. To a 10 ml plastic pipet cut off at the 3 ml mark and plugged with glass wool at the bottom, add enough slurry to form a 2 ml volume of the CM sephadex. Wash the packed resin with 6 ml of 1 M Tris buffer pH 7.5, and 6 ml of 0.01M Tris buffer pH 7.5. […] Apply fractions as follows. Fraction 1. One ml of sample A and allow to drain into column.

[3] = Kinetics of blood depletion and urine accumulation of chelates in the rat; assay type: in vivo; conditions: ^99mTc-DTPA, Gd-DTPA and Sm-DTPA simultaneously administered (Example 30), average of three rats
Procedure: One half ml of Sm-DTPA (0.01 mg/kg), dissolved in saline (pH 7), is injected into the tail vein of three rats. Samples of blood are obtained at 10, 30 and 60 minutes following injection and analyzed for Sm-DTPA by neutron activation. The percent of starting amount of the Sm-DTPA at each time interval is presented in Table 18 (last column on right). Similarly, the accumulation of Sm-DTPA in the rat urine at two times is shown in the last column of Table 18.
One half ml of Technetium-99m-DTPA (1 millicurie), Gd-DTPA (0.05 mg/kg), and Sm-DTPA (0.01 mg/kg) are each dissolved in saline (pH 7), and are injected simultaneously into the tail vein of three rats. Samples of blood are obtained at 10, 30 and 60 minutes following injection and analyzed for ^99mTc-DTPA (gamma counting), Gd-DTPA (T1 relaxation) and Sm-DTPA (neutron activation).
One half ml of Sm-DTPA, La-DTPA and Eu-DTPA (each 0.01 mg/kg), dissolved in saline (pH 7) are injected simultaneously into the tail vein of three rats. Samples of blood are obtained at 10, 30 and 60 minutes following injection and analyzed for each element by neutron activation.
Samples of Sm-DTPA, La-DTPA and Eu-DTPA (0.5 ml; 0.01 mg/kg), each dissolved in saline (pH 7), are injected sequentially at 0, 20, and 40 minutes into the tail vein of three rats. Samples of blood are obtained at 10, 30 and 60 min following each injection and analyzed for each element by neutron activation.

[4] = Stability of chelates in rat serum (CM-Sephadex assay, serum binding); conditions: 24 hours in rat serum at room temperature
[5] = Fraction 1: sample diluted 1:10 then 2-3 ml 0.01M Tris pH 7.5 (eluate)
[6] = Fraction 2: 3 ml 0.01M Tris pH 7.5
[7] = Fraction 3: column and contents (retained)
[8] = DOTA chelates, Fraction 1: 1 ml sample diluted 1:10 then 3 ml 0.01M Tris pH 7.5 (eluate)
[9] = DOTA chelates, Fraction 2: further 3 ml 0.01M Tris pH 7.5
[10] = DOTA chelates, Fraction 3: column and contents (retained)
[11] = Fraction 1: 3 ml 0.01M Tris pH 7.5 before sample
[12] = Fraction 2: 1 ml sample then 3 ml 0.01M Tris pH 7.5 (eluate)
[13] = Fraction 3: further 3 ml 0.01M Tris pH 7.5
[14] = Fraction 4: column and contents (retained)
[15] = Fraction 1: 0.2 ml sample then 2 ml 0.01M Tris pH 7.5 (eluate)

% of total [1, 5]	dpm [1, 5] [dpm]	% of total [1, 6]	dpm [1, 6] [dpm]	% of total [1, 7]	dpm [1, 7] [dpm]	% eluted from the CM-Sephadex column [2] [%]	% of total [2, 8]	dpm [2, 8] [dpm]	% of total [2, 9]	dpm [2, 9] [dpm]	% of total [2, 10]	dpm [2, 10] [dpm]	Compound	% of unchelated ion retained on the column [2] [%]	% of total [2, 11]	dpm [2, 11] [dpm]	% of total [2, 12]	dpm [2, 12] [dpm]	% of total [2, 13]	dpm [2, 13] [dpm]	other results
100 % of total	400045	<1 % of total	11	0 % of total	0	100	97 % of total	410040	3 % of total	11681	0 % of total	0	O=C([O-])CN1CCN(CC(=O)[O-])CCN(CC(=O)[O-])CCN(CC(=O)[O-])CC1.[La+3] [La-DOTA]								% eluted from CM-Sephadex column following autoclaving [1]: 100%
98 % of total	1439622	2 % of total	27521	0 % of total	0	100	98 % of total	1429326	2 % of total	28850	0 % of total	0	O=C([O-])CN1CCN(CC(=O)[O-])CCN(CC(=O)[O-])CCN(CC(=O)[O-])CC1.[Sm+3] [Sm-DOTA]								stability to autoclaving [1]: unstable product producing a mixture of Sm-DOTA and unchelated Sm^+3
													Technetium-99m-DTPA [^99mTc-DTPA, reference compound]								Percent of initial injection, blood ([3]; blood 10 min after i.v. injection): 85% of initial injection; Percent of initial injection, blood ([3]; blood 30 min): 63% of initial injection; Percent of initial injection, blood ([3]; blood 60 min): 30% of initial injection; Percent of initial injection, urine ([3]; urine 30 min): 25% of initial injection; Percent of initial injection, urine ([3]; urine 180 min): 92% of initial injection
													[Cl][Eu]([Cl])[Cl] [Europium chloride, reference compound]	100	0 % of total	0	0 % of total	0	0 % of total	0	% of total [2, 14]: 100 % of total; dpm [2, 14]: 21244 dpm; % of total [4, 15]: 42 % of total; dpm [4, 15]: 2378 dpm; % of total [4, 6]: 5 % of total; dpm [4, 6]: 291 dpm; % of total [4, 7]: 52 % of total; dpm [4, 7]: 2940 dpm
100 % of total	366651	<1 % of total	1226	0 % of total	0	100	100 % of total	391454	<1 % of total	132	0 % of total	0	O=C([O-])CN1CCN(CC(=O)[O-])CCN(CC(=O)[O-])CCN(CC(=O)[O-])CC1.[Eu+3] [Eu-DOTA]								% eluted from CM-Sephadex column following autoclaving [1]: 100%
													[Cl][Gd]([Cl])[Cl] [Gadolinium chloride, reference compound]	100	0 % of total		0 % of total		0 % of total		
													[Cl][Sm]([Cl])[Cl] [Samarium chloride, reference compound]	100	0 % of total	0	0 % of total	0	0 % of total	0	% of total [2, 14]: 100 % of total; % of total [4, 15]: 48 % of total; dpm [4, 15]: 104992 dpm; % of total [4, 6]: 3 % of total; dpm [4, 6]: 5702 dpm; % of total [4, 7]: 49 % of total; dpm [4, 7]: 108299 dpm
													[Cl][La]([Cl])[Cl] [Lanthanum chloride, reference compound]	100	0 % of total	0	0 % of total	0	0 % of total	0	% of total [2, 14]: 100 % of total; % of total [4, 15]: 49 % of total; dpm [4, 15]: 51651 dpm; % of total [4, 6]: 6 % of total; dpm [4, 6]: 6586 dpm; % of total [4, 7]: 44 % of total; dpm [4, 7]: 46450 dpm
